Assays:
[1] = tested on: wild-type mice; assay: Aβ42 intraperitoneal injection into wild-type mice (lipid deposition); format: in vivo, mouse; settings: WT mice, Aβ42 30 μg intraperitoneally three times at an interval of 3 days; 7 days after last injection
Method: (§1) FIGS. 3A to 3E show the increased lipid deposition induced by Aβ42.
To assess whether the Aβ peptides were involved in lipid deposition in adipose tissues, Aβ42 (30 μg) was injected intraperitoneally into WT mice three times at an interval of 3 days.

[2] = tested on: Aβ42-treated 3T3-L1 cells; assay: UCP1 and PPARγ2 levels in MDI-induced, Aβ42-treated 3T3-L1 cells (screening of combination drugs); settings: MDI-induced differentiated 3T3-L1 adipocytes treated with Aβ42 (FIG. 5)
[3] = tested on: 3T3-L1 cells; assay: Lipid droplet accumulation in 3T3-L1 adipocytes (3D imaging, HCS LipidTOX Red neutral lipid stain); format: cell-based, mouse; settings: 1 μM peptide, 24 hours
Method: as §1
Scale bar: 20 μm. […] FIGS. 6H and 6I show the HDL/T-Chol (FIG. 6H) and glucose (FIG. 6I) levels in plasma of APP/PS1 mice with or without thyroxine and pioglitazone. ** p<0.01. […] Tubulin, GAPDH (glyceraldehyde-3-phosphate dehydrogenase), and ponceau S: internal controls, respectively.
The 3T3-L1 pre-adipocytes ([…], ATCC CL-173) were cultured in Dulbecco's modified Eagle medium (DMEM) (Invitrogen, USA). Cells were grown at 37° C. in a 5% CO2 humid atmosphere. The differentiation of 3T3-L1 cells into adipocyte-like cells was performed as follows. A confluence of 70% of 3T3-L1 cells was induced with MDI induction medium (containing 500 μM 3-isobutyl-1-methylxanthine (IBMX), 1 μg/mL insulin, and 1 μM dexamethasone) for 3 days, followed by changing the medium to differentiation medium (10% fetal bovine serum (FBS) in DMEM). The differentiation medium was refreshed every two days. Full differentiation was achieved by day 8.
To exclude the possibility that the visceral adiposity was a secondary event caused by factors released from other tissues/organs, 3T3-L1 adipocytes were incubated with Aβ40 or Aβ42 to determine whether and which Aβ peptides to be potent in causing lipid accumulation in adipocytes.

[4] = tested on: 3T3-L1 cells; assay: ApoE gene expression and LXR signaling protein levels in 3T3-L1 cells treated with Aβ peptides; format: cell-based, mouse
Method: FIGS. 4E and 4H show the result of Western blot of LXR signaling proteins in gWAT (FIG. 4E) or BAT (FIG. 4H) of wild-type (WT) mice and APP/PS1 (AD) mice (n=2). […] ABCA1: ATP binding cassette subfamily A member 1. PPAγ: peroxisome proliferator-activated receptor gamma. Actin, GAPDH (glyceraldehyde-3-phosphate dehydrogenase) and tubulin: internal controls, respectively.
The 3T3-L1 pre-adipocytes ([…], ATCC CL-173) were cultured in Dulbecco's modified Eagle medium (DMEM) (Invitrogen, USA). Cells were grown at 37° C. in a 5% CO2 humid atmosphere. The differentiation of 3T3-L1 cells into adipocyte-like cells was performed as follows. […]
Total RNAs from brain tissues or culture cells were extracted using the illustra RNAspin Mini RNA Isolation Kit (GE Healthcare Life Sciences) for reverse transcription with the High-Capacity cDNA Reverse Transcription Kits (ABI Applied Biosystems, USA) according to the manufacturer's instructions. The quantitative real-time reverse transcription-PCR analysis was performed using the Fast SYBR Green Master Mix (ABI Applied Biosystems, USA). Results were determined using respective standard curves calculations. […]

[5] = tested on: dementia in human population; assay: Population-based retrospective matched cohort analysis of dementia risk (Taiwan NHIRD database); format: in vivo
Method: To assess the potential for applying the combined drugs identified in Example 5 for therapeutic application in patients with dementia, a long-term follow-up retrospective analysis of human efficacy predictions was conducted by using National Health Research Institutes Database (NHRID) of Taiwan. Specifically, a […] matched cohort study was conducted to assess the effectiveness of the combined use of thyroid hormones and thiazolidinediones (TZDs) in reducing the risk of dementia, based on a dataset tracked 10,535 subjects with these two drugs for 10 years.

Aβ42: amyloid β peptide Aβ42, used as inducer of lipid deposition
body weight and gWAT mass [1]: rapidly increased | PPARγ2 level [2]: increased | UCP1 level [2]: decreased | lipid droplet accumulation in adipocytes [3]: evidently stimulated | protein levels of LXRα, PPARγ, ABCA1 and caveolin-1 ([4]; Western blot): markedly decreased | apoE gene expression ([4]; qRT-PCR): markedly upregulated

N[C@@H](Cc1cc(I)c(Oc2ccc(O)c(I)c2)c(I)c1)C(=O)O [T3 only, triiodothyronine]
Incidence rate of dementia (per 1,000-person-year) ([5]; Group 3: TZD + T3 vs T3 only, matched cohort): 10.17 per 1,000-person-year | reduction of the risk of getting dementia ([5]; retrospective analysis, 10 years follow-up): 21.7%

Aβ40: amyloid β peptide Aβ40, comparison peptide
lipid droplet accumulation in adipocytes [3]: not
